Measurements taken from US20220146500A1, “COMPOSITIONS AND METHODS FOR ENHANCING MUCOSAL IMMUNITY” (Yale University, priority 2019, published 2022).

Assays:
polyclonal T cell lines = assay: Culture of Chlamydia-specific polyclonal T cell lines with TGFβ1, IL-13 in supernatant after anti-CD3 activation; format: cell-based, mouse
Method: FIG. 9 is a histogram depicting polyclonal T cell lines with fading IL-13 production cultured as per usual protocol and, in parallel, the usual protocol plus 10 ng/ml TGFβ1. At the end of one week the T cell lines were activated with immobilized anti-CD3 and IL-13 levels measured in culture supernatant. […] It was also noted that expansions in TGFβ1 conditions yielded˜50% more cells per well.
Conventional multifunction Chlamydia-specific Th1 clone 4uvmo-3 was previously described (Jayarapu et al., 2009, Infect Immun 77:4469-4479). For the new B-cell APC-derived T cells C57BL/6 mice were treated with 2.5 mg of medroxyprogesterone (Pfizer) delivered subcutaneously, then infected 7 days later with 5×10^4 IFU C. muridarum. Mice that cleared infection, >6 weeks post-infection, were used as the source of immune B and T cells. Initial Chlamydia-specific immune-B-cell-derived polyclonal T cell populations and clones were derived as follows. Splenocytes were harvested from immune mice. Immune B cells were purified from a portion of those splenocytes by “untouched” magnetic bead separation (Miltenyi Biotech). Immune B cells were pulsed with UV-MoPn (3.5×10^6 IFU equivalents per 7.5×10^5 B cells suspended at 7.5×10^6/ml; ˜5 IFU/cell) or soluble antigen (7.5 ul per 7.5×10^5 B cells suspended at 7.5×10^6/ml) for 1 h at 37° C. Antigen-pulsed immune B cells were transferred to 7.5 cc of “RPMI complete media”, pelleted, media containing antigen removed, then washed two more times with 7.5 cc of media (˜400,000-fold) to eliminate all non-cell bound or internalized Chlamydia antigen; the purpose of extended washing was to ensure that antigen presentation was limited to immune B cells. Primary stimulation wells were setup with 2.5×10^6 immune splenocytes plus 7.5×10^5 antigen-pulsed immune B cells in 0.75 ml “RPMI complete media” supplemented with recombinant cytokines and conditioned media as previously described (Johnson et al., 2014, Immunology 142:248-257); later T cell derivations during the course of the project included addition of 5 ng/ml recombinant murine TGFβ1 to the media. Limiting dilution cloning was done in media supplemented with recombinant cytokines/conditioned media with 10-20 ng/ml TGFβ1. Re-stimulation/maintenance of T cell clones was done weekly in 48-well plates by adding 100-200 k T cell clone cells to 1.5×10^6 irradiated naive splenocytes and 7.5×10^5 irradiated relevant-antigen-pulsed/washed immune B cells as feeders in media supplemented with recombinant cytokines/conditioned media including 2.5-10 ng/ml TGFβ1. Recombinant mouse cytokines were purchased from the same vendor (R&D Systems; Minneapolis, Minn.) except for TGFP1 (Ebioscience, San Diego, Calif.). […]

C. muridarum = conditions: upper reproductive tract epithelial cell line; cited from earlier work

Substance | IL-13 production after one week of culture (polyclonal T cell lines; 10 ng/ml TGFβ1, lines with fading IL-13 production, anti-CD3 activation) | more cells per well in expansions (polyclonal T cell lines; TGFβ1 conditions versus usual protocol) [%] | durable IL-13 production with increasing passage number (polyclonal T cell lines; immune-B-cell-APC-derived polyclonal T cell lines) | IL-13 production (polyclonal T cell lines; immune-splenocyte-APC-derived T cell lines) | effect on C. muridarum replication (C. muridarum)
TGFβ1: recombinant murine TGFβ1 | With the exception of B2 all the lines made more IL-13 | ~50 | required addition of TGFβ1 to the media | did not result in IL-13 production | 
IL-13: Th2 cytokine |  |  |  |  | modestly enhances C. muridarum replication
